Experimental data reported in ChEMBL document CHEMBL1144799, “Synthesis, antiviral activity, and conformational studies of a P3 aza-peptide analog of a potent macrocyclic tripeptide HCV protease inhibitor” (Bioorg Med Chem Lett, 2008).

Legend:
[1] = Inhibition of HCV NS3-4A protease; set-up: species or system Hepacivirus hominis
[2] = test system: Hepatitis C virus; test: Antiviral activity against HCV replicon; assay type: functional, organism-based, Hepacivirus hominis

IC50 [1] [µM] | EC50 [2] [µM] | SMILES
0.011 | 0.077 | COc1ccc2c(O[C@@H]3C[C@H]4C(=O)N[C@]5(C(=O)O)C[C@H]5/C=C\CCCCC[C@H](NC(=O)OC(C)(C)C)C(=O)N4C3)cc(-c3ccccc3)nc2c1
3.8 | 31 | COc1ccc2c(O[C@@H]3C[C@H]4C(=O)N[C@]5(C(=O)O)C[C@H]5/C=C\CCCCCN(NC(=O)OC(C)(C)C)C(=O)N4C3)cc(-c3ccccc3)nc2c1
3.5 |  | C=C[C@@H]1C[C@]1(NC(=O)[C@@H]1C[C@@H](Oc2cc(-c3ccccc3)nc3cc(OC)ccc23)CN1C(=O)N(NC(=O)OC(C)(C)C)C1CCCCC1)C(=O)O

The remaining lines, values behind:

SMILES | IC50 [1] [µM] | EC50 [2] [µM]
COc1ccc2c(O[C@@H]3C[C@H]4C(=O)N[C@]5(C(=O)O)C[C@H]5/C=C\CCCCC[C@H](NC(=O)OC5CCCC5)C(=O)N4C3)cc(-c3csc(NC(C)C)n3)nc2c1 [CILUPREVIR] | 0.003 | 0.0012
C=C[C@@H]1C[C@]1(NC(=O)[C@@H]1C[C@@H](Oc2cc(-c3ccccc3)nc3cc(OC)ccc23)CN1C(=O)N(CC(C)C)NC(=O)OC(C)(C)C)C(=O)O | 2.1 | 53
